From paper PMC7043877, “Synthesis and evaluation of a prodrug of 5-aminosalicylic acid for the treatment of ulcerative colitis” (Iranian Journal of Basic Medical Sciences, 2019)

Assays:
[1] = test system: colonic microflora; assay: In vivo incubation in the colon of rats (with or without clindamycin pretreatment); details: incubation in rat colon for 8 hr
Experimental: Rats were randomly divided into two groups (n=6), the clindamycin group and the control group. Clindamycin was used as an inhibitor of the colonic microflora. Rats were administered with a certain dose of clindamycin (25 mg/kg of body weight) and an equivalent volume of normal saline by gavage, twice daily for three days, respectively. After that, rats were anesthetized by diethyl ether, their abdomen was cut open, and then 5-ASA-ALA solution (2 mg, dissolved in 1 ml of PBS, pH=7.4) was injected into their colon, finally, their colon was tied at both ends and their abdomen was sutured immediately ([18], [19]). Eight hr later, animals were sacrificed, the colon contents of rats were collected and homogenized in PBS (pH=7.4, 40 ml). The homogenate was then centrifuged, and the supernatant was obtained and mixed with four times the volume of methanol, finally, samples were centrifuged, filtered and analyzed by HPLC. The percent of hydrolysis of 5-ASA-ALA was calculated as follows: percent of hydrolysis %=(1-Wf/Wt)×100 where Wf is the free amount of 5-ASA in the colon contents and Wi is the initial amount of 5-ASA-ALA that administered to rats.

[2] = test system: TNBS-induced colitis; assay: TNBS-induced colitis: disease activity index (DAI); format: in vivo, mice; details: compared with the positive control
Experimental: (§1) Colitis induction was performed based on the previous study ([20]). After a 12 hr of fast, mice were anesthetized with pentobarbital sodium (40 mg/kg of body weight). TNBS solution (0.1 ml dissolved in 50% ethanol, 2.5%) was injected into the colon of mice (3.5-4 cm from the anus), and then mice were kept head downward for 30 sec to prevent drug leakage. Twenty-four hr after the injection of TNBS, mice were administrated once daily for five continuous days with different drugs. Briefly, mice in treatment groups were administrated with a given dose of drugs by gavage (0.1 ml, equivalent to 100 mg/kg of 5-ASA) ([21]). Besides, mice in the control group and the positive group received a same volume of normal saline, and a physical mixture of 5-ASA and alanine, respectively. Forty-eight mice were randomly divided into four groups (n=12): 1) control (intragastric-gavage (ig), normal saline, no colitis induced), 2) TNBS (ig, normal saline), 3) positive (ig, 100 mg/kg 5-ASA+56 mg/kg alanine, dissolved in normal saline), 4) 5-ASA-ALA (ig, 156 mg/kg, dissolved in normal saline).
The disease activity index (DAI) of mice was scored and recorded daily from day 1 according to the scoring criteria (Table 1). […] The degree of fecal occult blood was evaluated by the ο-tolidine method ([22]), and scored based on the criteria reported by Kohn and kelly ([23]).

[3] = Pharmacokinetic study in rats after oral administration; format: in vivo, rat
Experimental: Twelve male Sprague-Dawley rats were randomly divided in two groups (n=6), the 5-ASA-ALA group and 5-ASA group. Rats were orally administered with a certain amount of 5-ASA-ALA (equivalent to 50 mg/kg of 5-ASA) and 5-ASA. At 0.25, 0.5, 1, 2, 4, 6 and 8 hr, blood samples were collected from the jugular vein and then centrifuged at 13000 g, 4 °C for 5 min to separate plasma. The plasma sample (0.1 ml) was mixed with methanol (0.4 ml), vortexed for 5 min and then centrifuged again. Finally, the supernatant was obtained, dried under nitrogen, dissolved in methanol and used for HPLC detection.

[4] = Transport study across Caco-2 monolayers (Papp); format: in vitro ADME, human; details: human, Caco-2
Experimental: (§2) Caco-2 cells were grown in DEME medium containing 10% FBS, 100 unit/ml peniciline, 100 µg/ml streptomycine, 2 mM glutamine, 1% sodium pyruvate and 1% non-essential amino acids at 37 °C in a humidified atmosphere of 95% air and 5% CO2. Cells were seeded on polycarbonate membranes (Transwell, diameter 24 mm, pore size 0.4 μm, Corning Costar, NY, USA) at 1×10^5 cells/well in a 6-well plate ([16]). Propranolol was used as a positive control.
(§3) Eight days later, Caco-2 cells reached 100% confluence and then were cultured for 18 days more. The culture medium was discarded, and then the apical (AP) and basal (BL) chambers were washed for 3 times with PBS. The culture medium was then replaced with 1 ml of propranolol or 5-ASA-ALA solution ([…]) in the AP chamber. In the BL chamber, 2 ml of PBS was added instead of the culture medium. The plate was incubated at 37 °C in an atmosphere of 95% air and 5% CO2 ([17]). After 0, 2, 4, 6, and 8 hr of incubation, the concentration of propranolol and 5-ASA-ALA in the BL chamber was measured by HPLC method, and the apparent permeability coefficient (Papp) of drugs was calculated as follows: […]
(§4) where dQ/dt (μmol/s) is the transport rate, C0 (μmol/cm^3) is the initial concentration in the donor chamber, and A (cm^2) is the surface area of insert filter membrane. Experiments were performed in triplicate.

[5] = test system: Caco-2 cells; assay: Transport study across Caco-2 monolayers (Papp); format: in vitro ADME, human; details: compared with propranolol
Experimental: as §2, §3, §4

[6] = Stability study of 5-ASA-ALA in rat plasma and stomach, small intestine and colon contents (room temperature storage, freezing-thawing); format: in vitro ADME; details: all tissue samples at 0.4, 1.6 and 6.4 μg/ml, both storage conditions
Experimental: This study was tested at three concentration levels of 5-ASA-ALA to evaluate its in vitro stability in tissue samples and validate the HPLC method for 5-ASA-ALA analysis under different conditions. Briefly, five rats were anesthetized and sacrificed, and their abdomen was cut open through the middle. Their stomach contents, small intestine contents and colon contents were collected and mixed with hydrochloric acid buffer (pH=1.2) and phosphate buffered saline (PBS) (pH=6.8 and 7.4), respectively, and homogenized to 20% (w/v). Then 1.0 ml of 5-ASA-ALA solution (dissolved in corresponding buffers) was mixed with the same volume of rat plasma, freshly prepared stomach contents, small intestine contents and colon contents, respectively, with the final concentration of 0.4, 1.6 and 6.4 μg/ml. Samples were divided into two groups, stored at room temperature for 10 hr or went through the freezing-thawing cycles twice. At the end of the storage and the freezing-thawing cycle, samples were centrifuged at 13000 g for 10 min and mixed with methanol (0.4 ml), then the mixture was vortexed and centrifuged again. Finally, the supernatant was collected, concentrated with nitrogen, and dissolved in methanol for HPLC analysis ([15]). Each concentration level was tested five times and the RSD was calculated respectively.

[7] = test system: MPO activity in colonic tissues; assay: TNBS-induced colitis: MPO activity in colonic tissues; format: in vivo, mice; details: P<0.01
Experimental: as §1
Colonic tissue samples were cleaned, dried and then suspended in HTAB solution (0.5%, pH=7.4), the final concentration of the tissue samples was 50 g/l. […] Finally, MPO activity in colonic tissues was detected by an assay kit according to the provider’s instructions.

[8] = test system: GSH, MDA, GSH-Px and SOD in colonic tissues; assay: TNBS-induced colitis: levels of GSH, MDA, GSH-Px and SOD in colonic tissues; format: in vivo, mice; details: P<0.01
Experimental: as §1
Clean and dried colonic tissues were homogenized in ice-cold normal saline, the resulting homogenate (10%, w/v) was centrifuged at 4 °C, 13000 g for 15 min. The obtained supernatant was diluted with normal saline to 1% (w/v), and the protein levels in the supernatant were measured by a BCA protein assay kit. The levels of GSH and MDA, and the activity of GSH-Px and SOD in the colonic tissues were measured by assay kits according to the provider’s instructions.

[9] = test system: TNBS-induced colitis; assay: TNBS-induced colitis: survival rate and body weight of mice; format: in vivo; details: ig equivalent to 100 mg/kg of 5-ASA, once daily 5 days
Experimental: as §1
From day 0 of colitis induction, the body weight of each mouse and the death of each group were recorded daily. Finally, the degree of TNBS-induced colitis in mice of each group was evaluated based on the curves of weight changes and the final survival rate of mice for each group.

[10] = In vitro incubation with colon contents of rats; format: in vitro ADME, rat
Experimental: Four g of colon contents of rats (n=6) were collected and mixed with 5-ASA-ALA solution (0.1 g/ml) in PBS (pH=7.4, 40 ml), the mixture was incubated under nitrogen atmosphere at 37 °C. At the time point of 0, 1, 2, 3, 4, 5, 6, 7, 8, 9 and 10 hr, the mixture (0.5 ml) was sampled and replaced with an equivalent volume of PBS. Samples were then centrifuged and filtered, the concentration of 5-ASA was detected by HPLC method. The experiment was conducted at seven concentration levels of 5-ASA-ALA (27.5, 50.0, 72.5, 105.0, 150.0, 200.0 and 305.0 μg/ml). The hydrolysis curve of each concentration was drawn, the linear regression was made to obtain regression equations, and the slope of each curve was regarded as the hydrolysis rate of 5-ASA-ALA.

[11] = test system: TNBS-induced colitis; assay: TNBS-induced colitis: colonic damage score (CDS) and colon index; format: in vivo, mice; details: vs positive control, P<0.05
Experimental: Colitis induction was performed based on the previous study ([20]). After a 12 hr of fast, mice were anesthetized with pentobarbital sodium (40 mg/kg of body weight). TNBS solution (0.1 ml dissolved in 50% ethanol, 2.5%) was injected into the colon of mice (3.5-4 cm from the anus), and then mice were kept head downward for 30 sec to prevent drug leakage. Twenty-four hr after the injection of TNBS, mice were administrated once daily for five continuous days with different drugs. Briefly, mice in treatment groups were administrated with a given dose of drugs by gavage (0.1 ml, equivalent to 100 mg/kg of 5-ASA) ([21]). […]
All mice were sacrificed on the 5th day of the experiment, their colonic tissues were excised, cut longitudinally, washed carefully with normal saline, and observed with a magnifying glass. The colonic damage score (CDS) was evaluated according to following scoring criteria: 0, no ulcer and colitis; 1, local hyperemia without ulcer; 2, ulcers without local hyperemia; 3, only one ulcerative and inflammatory lesion; 4, more than one ulcerative and inflammatory lesions; 5, more than 2 cm of continuous ulcer areas ([24]).
The entire colon samples were dried with filter papers, the length and weight of the samples were measured and recorded, respectively, in order to calculate the colon index of mice as the following formula: […]

[12] = test system: Caco-2 cells; details: Caco-2 cell monolayer, known value that justifies the positive control; no reference given; cited from earlier work
[13] = vs TNBS group, five days of treatment

Question: Which percent of hydrolysis ([1]; clindamycin group (25 mg/kg twice daily, three days), P<0.01) does the source give for `CC(NC(=O)c1cc(N)ccc1O)C(=O)O` (centres unmarked) [5-ASA-ALA, 5-Aminosalicylic acid-alanine] here?
Answer: 5.26%

Question: And the percent of hydrolysis ([1]; control group (normal saline))?
Answer: 89.14%

Question: What about the DAI [2] of the same compound?
Answer: more effective than the positive control

Question: And the plasma concentration ([3]; oral, equivalent to 50 mg/kg of 5-ASA, 0-8 hr)?
Answer: not detected

Question: And the Papp at 8 hr, 200 μmol/l ([4]; apical to basal direction, at 200 μmol/l)?
Answer: 2.63 ×10⁻⁶ cm/s

Question: And the Papp at 8 hr, 400 μmol/l ([4]; apical to basal direction, at 400 μmol/l)?
Answer: 1.73 ×10⁻⁶ cm/s

Question: And the “absorption in the Caco-2 monolayer” value [5]?
Answer: significantly less than the propranolol

Question: What about the “RSDs in all tissue samples” value [6] of the same compound?
Answer: < 4%

Question: And the “MPO activity in colonic tissues” value ([7]; vs TNBS group)?
Answer: significantly reduced

Question: What about the “MPO activity in colonic tissues” value ([7]; vs positive control) of the same compound?
Answer: obviously more effective than the positive control

Question: And the “GSH level in colonic tissues” value [8, 13]?
Answer: significantly higher

Question: And the “GSH-Px activity in colonic tissues” value [8, 13]?
Answer: higher activities

Question: What about the “MDA level in colonic tissues” value [8, 13] of the same compound?
Answer: significantly lower

Question: What about the “SOD activity in colonic tissues” value [8, 13] of the same compound?
Answer: higher activities

Question: And the “reducing the MDA level in the colon” value ([8]; vs positive control)?
Answer: significantly greater effect

Question: What about the body weight ([9]; alleviated from the third day) of the same compound?
Answer: slight weight loss in the first two days

Question: What about the survival rate ([9]; positive control vs 5-ASA-ALA group, n=12) of the same compound?
Answer: no significant difference

Question: What about the “concentration of 5-ASA-ALA above which the hydrolysis rate did not increase anymore (zero-order)” value ([10]; colon contents of rats, Figure 3) of the same compound?
Answer: above 200 µg/ml

Question: And the “5-ASA released from 5-ASA-ALA” value ([10]; colon contents, PBS pH 7.4, nitrogen, 37 °C, 0-10 hr)?
Answer: gradually released

Question: And the CDS [11]?
Answer: significantly greater effect than the positive control

Question: Which Papp [12] does the source give for `CC(C)NCC(O)COc1cccc2ccccc12` (centres unmarked) [Propranolol, reference compound] here?
Answer: 27.5 ×10⁻⁶ cm/s

Question: What about the Papp at 8 hr, 100 μmol/l ([4]; detected in this study, at 100 μmol/l) of the same compound?
Answer: 24.8 ×10⁻⁶ cm/s

Question: With `Nc1ccc(O)c(C(=O)O)c1` [5-ASA, 5-Aminosalicylic acid] as the compound, how does the Tmax ([3]; male, Sprague-Dawley, rat, oral administration, 50 mg/kg of 5-ASA, plasma) read?
Answer: 30 min
